From publication PMC4399250, “Characterization of HIV-1 entry inhibitors with broad activity against R5 and X4 viral strains” (Journal of Translational Medicine, 2015)
Like-named read-outs stand apart in the source and are kept apart here.

Tests used:
HIV-1 IIIB (X4) [1] = assay: HIV-1 acute infection of PHA-activated PBMC, p24 ELISA, IIIB strain; assay type: cell-based; conditions: for effect on X4 HIV-1 replication (in words): p24 day 7, concentrations tested up to 30 μM for the six compounds
HIV-1 BaL (R5) [2] = assay: HIV-1 acute infection of PHA-activated PBMC, p24 ELISA, BaL strain; assay type: cell-based; conditions: for effect on R5 HIV-1 replication (in words): p24 day 7, concentrations tested up to 30 μM for the six compounds
PBMC = assay: MTT cytotoxicity assay on PBMC; assay type: cell-based, human; conditions: infected PBMC
Protocol: PBMC and TZM-bl viability was measured by the MTT [3-(4,5- dimethylthiazol-2-yl)-2,5-diphenyl tetrazolium bromide; Sigma] assay. Cells were seeded in 96-well plates in three replicates and were incubated for four (TZM-bl) or six (PBMC) days with different concentrations of the compounds or DMSO alone at 0.2% as control. Then 10μl of complete medium containing MTT (0.5 mg/ml) was added to each well. After 24h incubation at 37°C, the supernatant was removed and 200μl of ethanol was added to each well to solubilize the formazan crystals. After vigorous shaking, absorbance was measured in a microplate reader at 490 nm.

HIV-1 IIIB (X4) [3] = assay type: cell-based
HIV-1 BaL (R5) [4] = assay: HIV-1 fusion assay, PM1-BaL donor and TZM-bl target cells; assay type: cell-based; conditions: PM1-BaL donor, TZM-bl target, 2.5% FCS
influenza A virus = assay: Influenza virus-like particle entry assay in MDCK cells; assay type: cell-based; conditions: three concentrations, bafilomycin 100 nM
CXCR4 = CXCR4 (Homo sapiens, UniProt P61073); assay: Flow cytometry competition with anti CXCR4 moAbs; assay type: binding; conditions: PM1 cells; ND-4043 30, 10, 3 μM; AMD3100 3, 0.3, 0.03 μM
CXCR4, sequence (P61073 whole entry): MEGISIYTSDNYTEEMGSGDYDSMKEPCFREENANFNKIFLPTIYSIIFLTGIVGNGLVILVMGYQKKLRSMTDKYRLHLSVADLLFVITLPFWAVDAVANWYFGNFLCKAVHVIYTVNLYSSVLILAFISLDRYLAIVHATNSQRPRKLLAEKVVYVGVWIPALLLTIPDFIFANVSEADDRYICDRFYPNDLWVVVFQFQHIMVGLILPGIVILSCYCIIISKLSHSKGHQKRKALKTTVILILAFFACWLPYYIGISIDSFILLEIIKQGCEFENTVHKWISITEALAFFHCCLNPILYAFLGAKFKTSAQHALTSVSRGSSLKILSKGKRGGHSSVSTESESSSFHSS

[5] = IIIB (X4), infected PBMC, p24 day 7
[6] = BaL (R5), infected PBMC, p24 day 7

Cn1cc(NC(=O)c2cc(NC(=O)c3cc(NC=O)cn3C)cn2C)cc1C(=O)NCCC(=N)N [compound 4044, distamycin]
IC50 (HIV-1 IIIB (X4) [1]; [5]): > 30 µM | IC75 (HIV-1 IIIB (X4) [1]; [5]): >30 µM | IC90 (HIV-1 IIIB (X4) [1]; [5]): > 30 µM | effect on X4 HIV-1 replication (in words) (HIV-1 IIIB (X4) [1]; PBMC): not effective | IC50 (HIV-1 BaL (R5) [2]; [6]): > 30 µM | IC75 (HIV-1 BaL (R5) [2]; [6]): >30 µM | IC90 (HIV-1 BaL (R5) [2]; [6]): > 30 µM | effect on R5 HIV-1 replication (in words) (HIV-1 BaL (R5) [2]; PBMC): not effective | CC50 (PBMC; table section BaL (R5)): 25 µM | CC50 (PBMC; table section IIIB (X4)): 30 µM | effect on X4-mediated fusion (in words) (HIV-1 IIIB (X4) [3]; SupT1-IIIB donor, TZM-bl target, 2.5% FCS): did not affect | effect on R5-mediated fusion (in words) (HIV-1 BaL (R5) [4]): did not affect

CO/C1=C\C(C)=C\[C@@H](C)[C@@H](O)[C@@H](C)C/C(C)=C/C=C/[C@H](OC)[C@@H]([C@@H](C)[C@@H](O)[C@H](C)[C@@]2(O)C[C@@H](O)[C@H](C)[C@@H](C(C)C)O2)OC1=O [bafilomycin A1]
effect on influenza A virus entry (influenza A virus): inhibited viral entry significantly

Maraviroc
effect on X4 HIV-1 replication (in words) (HIV-1 IIIB (X4) [1]; PBMC): no effect | concentration inhibiting R5 HIV-1 replication (HIV-1 BaL (R5) [2]; PBMC, p24 day 7, ten fold dilutions, complete blockade for maraviroc): 0.1 µM | activity relative to ND-4043 on R5 inhibition (HIV-1 BaL (R5) [2]; side-by-side comparison): approximately 100 fold | effect on R5-mediated fusion (in words) (HIV-1 BaL (R5) [4]): selectively blocked entry

c1cc(CN2CCCNCCNCCCNCC2)ccc1CN1CCCNCCNCCCNCC1 [AMD3100]
concentration inhibiting X4 HIV-1 replication (HIV-1 IIIB (X4) [1]; PBMC, p24 day 7, ten fold dilutions, complete inhibition for AMD3100): 0.01 µM | activity relative to ND-4043 on X4 inhibition (HIV-1 IIIB (X4) [1]; side-by-side comparison): approximately 100 fold | effect on R5 HIV-1 replication (in words) (HIV-1 BaL (R5) [2]; PBMC): no effect | effect on X4-mediated fusion (in words) (HIV-1 IIIB (X4) [3]): selectively blocked entry | effect on binding of four anti-CXCR4 moAbs (CXCR4): inhibited binding of the four moAbs in a concentration-dependent manner
